This note sets out measurements from patent US20090004194A1, “TLR AGONIST (FLAGELLIN)/CD40 AGONIST/ANTIGEN PROTEIN AND DNA CONJUGATES AND USE THEREOF FOR INDUCING SYNERGISTIC ENHANCEMENT IN IMMUNITY” (Regents of the University of Colorado, priority 2006, published 2009).

“Also recorded” adds a separate entry of the source.

The test system of assay [1] is antigen specific CD8+ T cells. As to the kind of experiment: Immunization of mice with ovalbumin plus TLR and CD40 agonists; antigen-specific CD8+ T cells by tetramer staining. The format is in vivo.
Another assay relates to spleen cells. Nature of the assay: Type 1 IFN (IFNalphabeta) induction in spleen cells in vitro. Type of assay: cell-based. An excerpt:
Two forms of the recombinant protein are made; the light chain, heavy chain and HIV Gag with and without flagellin. The TLR7/8 agonist is conjugated to each other resulting in the production of proteins which stimulate CD40/TLR7/8. A proprietary TLR7/8 agonist, called 3M012 (3M Pharmaceuticals Inc, St. Paul Minn.) contains a photoconjugatable linker, which when placed under UV light, conjugates rapidly to terminal amino groups (lysines, arginines, N terminus) in the protein of interest. Conjugation to the TLR7/8 agonist is performed as described previously (Wille-Reece et al., J. Immunol. 174:7676 (2005)). Briefly, recombinant protein is placed in deep well polypropylene 96 well plates (Costar) with 50-100 microliters of 10 mg/ml 3M012 and exposed to longwave UV light for 15 minutes. Following UV exposure, the recombinant protein-TLR7/8 conjugate is washed through a 30 kd cutoff centricon concentrator to remove any free 3M012 and […] molecular weight drug conjugates. The recombinant protein-TLR7/8 conjugates are washed in PBS pH 7.5-8 and analyzed as described above for anti-CD40 and TLR5 activity (for recombinant protein containing flagellin). The amount of 3M012 conjugated to the recombinant protein is determined in vitro by type 1 IFN (IFNalphabeta) induction in spleen cells as previously described (Wille-Reece et al. (Id)).

Take poly IC: in assay [1] (mouse, in vivo), the “synergy with anti-CD40 for inducing CD8+ T cell expansion” value is listed as “able to synergize with anti-CD40”.

For flagellin, in assay [1] (whole ovalbumin + anti-CD40 + TLR agonist), the “synergy with anti-CD40 for inducing CD8+ T cell expansion” value is “able to synergize with anti-CD40; also recorded: effectively synergizes with anti-CD40”. Moreover, the IFN alphabeta induction result in the assay on spleen cells was “does not induce IFN alphabeta”.
